From patent publication US20130345214A1, “Lipoxygenase Inhibitors” (SRI International, Inc., priority 2011, published 2013) come the findings set out here.

Read-outs that look alike come from different tables or passages of the source.

Experiment [1] addresses T1, 5-LOX (Homo sapiens, UniProt P09917).
T1 sequence (P09917 1-674): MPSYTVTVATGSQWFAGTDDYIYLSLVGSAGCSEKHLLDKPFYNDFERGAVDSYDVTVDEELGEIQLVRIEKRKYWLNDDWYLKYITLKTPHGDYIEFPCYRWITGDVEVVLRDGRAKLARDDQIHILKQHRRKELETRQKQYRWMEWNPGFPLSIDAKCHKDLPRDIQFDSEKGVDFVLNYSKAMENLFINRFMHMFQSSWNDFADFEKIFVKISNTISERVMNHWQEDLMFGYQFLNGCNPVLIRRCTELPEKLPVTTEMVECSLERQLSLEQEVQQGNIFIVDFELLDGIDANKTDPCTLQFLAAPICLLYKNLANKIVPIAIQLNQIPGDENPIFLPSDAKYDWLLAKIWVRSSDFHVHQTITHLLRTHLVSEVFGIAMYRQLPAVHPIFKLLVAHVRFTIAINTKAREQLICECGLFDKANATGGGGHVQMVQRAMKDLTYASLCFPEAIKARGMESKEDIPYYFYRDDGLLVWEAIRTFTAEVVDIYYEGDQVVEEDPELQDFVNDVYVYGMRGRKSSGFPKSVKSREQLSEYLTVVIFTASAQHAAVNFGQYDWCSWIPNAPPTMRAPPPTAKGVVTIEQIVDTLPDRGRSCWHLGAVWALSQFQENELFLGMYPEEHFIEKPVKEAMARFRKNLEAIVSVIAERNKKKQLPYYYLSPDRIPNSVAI
In words: fluorescence-based enzyme assay of human 5-LOX (Table 3). The format is biochemical. From the text:
(§1) Table 3 provides results for exemplary subject bisindole compounds on 5-LOX, 12-LOX and 15-LOX.

Experiment [2] deals with T2, human 12-LOX (Homo sapiens, UniProt P18054).
T2 construct: ferric oxidation of xylenol orange from arachidonic acid in human blood platelets; endogenous in cells; host or cells: human blood platelets
T2 sequence (P18054 1-663): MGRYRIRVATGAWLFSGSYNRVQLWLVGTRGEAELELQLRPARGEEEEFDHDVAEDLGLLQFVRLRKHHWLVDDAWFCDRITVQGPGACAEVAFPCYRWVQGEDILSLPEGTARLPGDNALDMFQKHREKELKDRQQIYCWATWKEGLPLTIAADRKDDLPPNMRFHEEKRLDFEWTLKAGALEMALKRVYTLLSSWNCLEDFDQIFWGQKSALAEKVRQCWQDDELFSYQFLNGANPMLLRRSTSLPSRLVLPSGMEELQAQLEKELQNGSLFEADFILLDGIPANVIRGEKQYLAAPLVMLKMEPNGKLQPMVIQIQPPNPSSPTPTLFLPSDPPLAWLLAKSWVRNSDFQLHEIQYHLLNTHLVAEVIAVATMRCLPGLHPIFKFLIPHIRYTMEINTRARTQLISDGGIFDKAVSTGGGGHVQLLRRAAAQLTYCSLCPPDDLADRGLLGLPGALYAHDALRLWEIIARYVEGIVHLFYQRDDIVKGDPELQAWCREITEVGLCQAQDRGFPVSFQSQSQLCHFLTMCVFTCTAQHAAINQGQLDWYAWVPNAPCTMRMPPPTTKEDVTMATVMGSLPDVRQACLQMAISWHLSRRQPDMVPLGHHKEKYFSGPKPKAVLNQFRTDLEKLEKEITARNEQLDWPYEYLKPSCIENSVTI
The experiment in a line: colorimetric platelet 12-LOX activity assay (ferric oxidation of xylenol orange, human blood platelets). The format is cell-based.
Excerpt: as §1

In experiment [3] the target is T3, 15-LOX-2 (Homo sapiens, UniProt O15296).
T3 sequence (O15296 1-676): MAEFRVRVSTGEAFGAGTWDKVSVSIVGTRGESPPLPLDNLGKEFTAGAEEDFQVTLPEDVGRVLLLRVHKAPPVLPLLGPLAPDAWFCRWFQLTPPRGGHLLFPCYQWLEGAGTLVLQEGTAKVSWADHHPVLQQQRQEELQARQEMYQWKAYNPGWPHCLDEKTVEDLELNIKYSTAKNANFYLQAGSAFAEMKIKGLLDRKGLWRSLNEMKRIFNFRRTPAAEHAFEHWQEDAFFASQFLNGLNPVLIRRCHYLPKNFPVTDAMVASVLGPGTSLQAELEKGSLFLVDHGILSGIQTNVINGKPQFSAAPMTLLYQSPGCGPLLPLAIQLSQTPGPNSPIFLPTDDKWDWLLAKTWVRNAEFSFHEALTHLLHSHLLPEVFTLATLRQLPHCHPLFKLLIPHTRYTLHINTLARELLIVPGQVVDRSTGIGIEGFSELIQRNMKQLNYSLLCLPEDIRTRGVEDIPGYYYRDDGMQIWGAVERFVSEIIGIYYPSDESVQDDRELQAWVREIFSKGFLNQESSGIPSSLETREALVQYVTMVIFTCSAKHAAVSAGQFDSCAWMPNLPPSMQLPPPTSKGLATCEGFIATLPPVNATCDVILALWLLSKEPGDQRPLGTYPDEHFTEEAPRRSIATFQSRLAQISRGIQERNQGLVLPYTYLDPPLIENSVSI
The experiment in a line: in vitro 15-LOX-2 inhibition (Table 3). It is filed as biochemical.
Excerpt: as §1

Experiment [4] has as its system amyloid-beta (Abeta) formation. The experiment in a line: secreted Abeta40/Abeta42 ELISA in N2A-APPswe cells. It is filed as cell-based. The following applies: Mus musculus, 24 hours treatment. The method, then:
A neuronal cell-based screening assay capable of sensitive and selective detection of secreted Aβ40 and Aβ42 was established. Mouse neuro-2A neuroblastoma (N2A) cells were co-transfected with pSV2neo selection plasmid and a human APP gene carrying the K670N/M671L Swedish mutations (APPswe) that are known to cause early-onset AD. The transfected cells were selected in G418-containing medium, and single colonies were analyzed for the expression of APPswe. The resulting stable cell line, N2A-APPswe, provides a platform for screening inhibitors that alter Aβ formation from the human APPswe gene. Levels of secreted Aβ40 and Aβ42 in the medium can be quantified by ELISA kits. Table 4 provides results for exemplary subject bisindole compounds on amyloid-beta (Abeta) formation at 5 μM after 24 hours treatment in N2A-APPswe cells.
(An ELISA detects its analyte on a solid surface through an enzyme-linked reagent.)

Setting [5] is: read-out: Abeta 40 formation (% of control).
[6] abbreviates: read-out: Abeta 42 formation (% of control).

Consider `Clc1ccc2[nH]c3c(OCC4CCCN4)c4[nH]c5ccc(Cl)cc5c4cc3c2c1` (centres unmarked) [drawing 13], for which the inhibition at 3 µM was 79% in experiment [1], 79% in experiment [2] and 43% in experiment [3].

Regarding `Nc1nnnn1CCOc1c2[nH]c3ccc(Cl)cc3c2cc2c1[nH]c1ccc(Cl)cc12` [drawing 10], the results for the inhibition at 3 µM in experiment [1], in experiment [2] and in experiment [3] were 85%, 73% and 24%, respectively.

Take `Fc1ccc2[nH]c3c(OC4CCNC4)c4[nH]c5ccc(F)cc5c4cc3c2c1` (centres unmarked) [drawing 12]: the figures for the inhibition at 3 µM in experiment [1], in experiment [2] and in experiment [3] were 86%, 80% and 51%, respectively.

Consider `Clc1ccc2[nH]c3c(OCCCn4cncn4)c4[nH]c5ccc(Cl)cc5c4cc3c2c1` [drawing 25], for which the activity at 5 µM turned out to be 66% in experiment [4] (setting [5]) and 54% in experiment [4] (setting [6]).

Take `Fc1ccc2[nH]c3c(OC4CCNC4)c4[nH]c5ccc(F)cc5c4cc3c2c1` (centres unmarked) [drawing 29]: the activity at 5 µM in experiment [4] (setting [5]) was determined as 71%; in experiment [4] (setting [6]), 9%.

With `Fc1ccc2[nH]c3c(OCCN4CC[C@H](F)C4)c4[nH]c5ccc(F)cc5c4cc3c2c1`, the activity at 5 µM was found to be 75% in experiment [4] (setting [5]) and 35% in experiment [4] (setting [6]).

Turning to `Fc1ccc2[nH]c3c(OC[C@H]4CCCN4)c4[nH]c5ccc(F)cc5c4c(Cl)c3c2c1`, the values for the inhibition at 3 µM in experiment [1], in experiment [2] and in experiment [3] were 91%, 80% and 45%, respectively.

Consider `c1ccc2c(c1)[nH]c1c(OCCCN3CCOCC3)c3[nH]c4ccccc4c3cc12`, for which the activity at 5 µM in experiment [4] (setting [5]) turned out to be 95%; in experiment [4] (setting [6]), 25%.

For the compound `N=C(N)NCCCOc1c2[nH]c3ccc(Cl)cc3c2cc2c1[nH]c1ccc(Cl)cc12`, the activity at 5 µM worked out at 77% in experiment [4] (setting [5]) and 8% in experiment [4] (setting [6]).

As to `Fc1ccc2[nH]c3c(OC[C@@H]4CCCN4)c4[nH]c5ccc(F)cc5c4cc3c2c1`, the inhibition at 3 µM was found to be 92% in experiment [1], 88% in experiment [2] and 55% in experiment [3].

Take `Nc1nnn(CCOc2c3[nH]c4ccc(Cl)cc4c3cc3c2[nH]c2ccc(Cl)cc23)n1` [drawing 9]: the inhibition at 3 µM in experiment [1] stood at 70%; in experiment [2] it was 77%; in experiment [3] it was 19%.

For the compound `N=C(N)NCCCOc1c2[nH]c3ccc(F)cc3c2cc2c1[nH]c1ccc(F)cc12` [drawing 11], the inhibition at 3 µM in experiment [1] worked out at 95%; in experiment [2] it was 79%; in experiment [3], 66%.

Turning to `Cc1nnnn1CCOc1c2[nH]c3ccc(F)cc3c2cc2c1[nH]c1ccc(F)cc12`, the activity at 5 µM in experiment [4] (setting [5]) was determined as 66%; in experiment [4] (setting [6]) it was 36%.

`CN(C)CCOc1c2[nH]c3ccc(F)cc3c2c(Cl)c2c1[nH]c1ccc(F)cc12` [drawing 33]: the activity at 5 µM was 68% in experiment [4] (setting [5]) and 55% in experiment [4] (setting [6]).

On to `Nc1nnnn1CCOc1c2[nH]c3ccc(Cl)cc3c2cc2c1[nH]c1ccc(Cl)cc12` [drawing 27], for which the activity at 5 µM in experiment [4] (setting [5]) is 81%; in experiment [4] (setting [6]), 71%.

Take `F[C@@H]1CN[C@H](COc2c3[nH]c4ccc(Cl)cc4c3cc3c2[nH]c2ccc(Cl)cc23)C1`: the activity at 5 µM in experiment [4] (setting [5]) is 59%; in experiment [4] (setting [6]) it was 3%.

`CCN(CC)CCOC(=O)c1ccc2[nH]c3c(OC)c4[nH]c5ccc(C(=O)OCCN(CC)CC)cc5c4cc3c2c1`: the inhibition at 10 µM turned out to be 80% in experiment [1] (10 μM (footnote *)) and 12% in experiment [2] (10 μM (footnote *)).

As to `Clc1ccc2[nH]c3c(OCC4CCCN4)c4[nH]c5ccc(Cl)cc5c4cc3c2c1` (centres unmarked) [drawing 30], the values for the activity at 5 µM in experiment [4] (setting [5]) and in experiment [4] (setting [6]) were 69% and 59%, respectively.

Turning to `Fc1ccc2[nH]c3c(OCCN4CCCCC4)c4[nH]c5ccc(F)cc5c4cc3c2c1`, the activity at 5 µM was found to be 82% in experiment [4] (setting [5]) and 19% in experiment [4] (setting [6]).

For `Fc1ccc2[nH]c3c(OCC4CCCN4)c4[nH]c5ccc(F)cc5c4c(C(F)(F)F)c3c2c1` (centres unmarked) [drawing 32], the activity at 5 µM in experiment [4] (setting [5]) worked out at 89%; in experiment [4] (setting [6]) it was 69%.

Turning to `Fc1ccc2[nH]c3c(OCC4CCCN4)c4[nH]c5ccc(F)cc5c4c(Cl)c3c2c1` (centres unmarked), the activity at 5 µM in experiment [4] (setting [5]) was found to be 86%; in experiment [4] (setting [6]) it was 62%.

With `Fc1ccc2[nH]c3c(C(F)(F)F)c4[nH]c5ccc(F)cc5c4cc3c2c1`, the activity at 5 µM amounted to 81% in experiment [4] (setting [5]) and 47% in experiment [4] (setting [6]).

Turning to `Nc1nnn(CCOc2c3[nH]c4ccc(Cl)cc4c3cc3c2[nH]c2ccc(Cl)cc23)n1` [drawing 26], the figures for the activity at 5 µM in experiment [4] (setting [5]) and in experiment [4] (setting [6]) were 86% and 75%, respectively.

On to `Cc1nnn(CCOc2c3[nH]c4ccc(F)cc4c3cc3c2[nH]c2ccc(F)cc23)n1`, for which the activity at 5 µM in experiment [4] (setting [5]) stood at 66%; in experiment [4] (setting [6]) it was 36%.

Take `Fc1ccc2[nH]c3c(OCCn4cncn4)c4[nH]c5ccc(F)cc5c4cc3c2c1`: the figures for the activity at 5 µM in experiment [4] (setting [5]) and in experiment [4] (setting [6]) were 53% and 30%, respectively.

For the compound `Fc1ccc2[nH]c3c(OCC4CCCN4)c4[nH]c5ccc(F)cc5c4cc3c2c1` (centres unmarked) [drawing 36], the activity at 5 µM in experiment [4] (setting [5]) is 65%; in experiment [4] (setting [6]), 52%.

`CN(C)CCOc1c2[nH]c3ccc(F)cc3c2cc2c1[nH]c1ccc(F)cc12` [drawing 24]: the activity at 5 µM in experiment [4] (setting [5]) amounted to 79%; in experiment [4] (setting [6]) it was 76%.

In the case of `Fc1ccc2[nH]c3c(OCC4CCCO4)c4[nH]c5ccc(F)cc5c4cc3c2c1` (centres unmarked), the activity at 5 µM is 74% in experiment [4] (setting [5]) and 42% in experiment [4] (setting [6]).

For `COc1c2[nH]c3ccc(F)cc3c2c(N2CCOCC2)c2c1[nH]c1ccc(F)cc12`, the activity at 5 µM turned out to be 77% in experiment [4] (setting [5]) and 43% in experiment [4] (setting [6]).

Regarding `CCOC(=O)c1ccc2[nH]c3c(O[C@H]4CCNC4)c4[nH]c5ccc(C(=O)OCC)cc5c4cc3c2c1` [drawing 35], the activity at 5 µM in experiment [4] (setting [5]) is 70%; in experiment [4] (setting [6]), 48%.

Consider `Fc1ccc2[nH]c3c(OC[C@@H]4C[C@H](F)CN4)c4[nH]c5ccc(F)cc5c4cc3c2c1` [drawing 34], for which the activity at 5 µM in experiment [4] (setting [5]) amounted to 93%; in experiment [4] (setting [6]) it was 67%.

`N=C(N)NCCCOc1c2[nH]c3ccc(F)cc3c2cc2c1[nH]c1ccc(F)cc12` [drawing 28]: the activity at 5 µM in experiment [4] (setting [5]) is 82%; in experiment [4] (setting [6]), 58%.

The term inhibition denotes how much of the control response was suppressed. High values mean strong suppression, low ones little suppression.
